Legend:
Leukotriene C4 synthase = biological target: T1, Leukotriene C4 synthase (Cavia porcellus, UniProt A6XA80); assay type: tissue-based, Lung;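 note: enzyme inhibition assay of leukotriene C4 synthase, using LTA4 as the substrate; in other assays of this panel Not Active means under 50% inhibition at 10 µM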
T1 sequence (A6XA80 whole entry): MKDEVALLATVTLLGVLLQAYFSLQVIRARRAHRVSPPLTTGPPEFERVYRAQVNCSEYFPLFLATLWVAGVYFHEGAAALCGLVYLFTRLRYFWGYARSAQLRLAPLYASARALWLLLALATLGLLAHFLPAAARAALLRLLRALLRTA

Acetylcholinesterase = Acetylcholinesterase (Homo sapiens, UniProt P22303); experiment: DRUGMATRIX: Acetylcholinesterase enzyme inhibition (substrate: acetylthiocholine); assay type: cell-based, HEK293; conditions: hek293; Not Active = under 50% inhibition at 10 µM
Chain of Acetylcholinesterase (P22303 whole entry): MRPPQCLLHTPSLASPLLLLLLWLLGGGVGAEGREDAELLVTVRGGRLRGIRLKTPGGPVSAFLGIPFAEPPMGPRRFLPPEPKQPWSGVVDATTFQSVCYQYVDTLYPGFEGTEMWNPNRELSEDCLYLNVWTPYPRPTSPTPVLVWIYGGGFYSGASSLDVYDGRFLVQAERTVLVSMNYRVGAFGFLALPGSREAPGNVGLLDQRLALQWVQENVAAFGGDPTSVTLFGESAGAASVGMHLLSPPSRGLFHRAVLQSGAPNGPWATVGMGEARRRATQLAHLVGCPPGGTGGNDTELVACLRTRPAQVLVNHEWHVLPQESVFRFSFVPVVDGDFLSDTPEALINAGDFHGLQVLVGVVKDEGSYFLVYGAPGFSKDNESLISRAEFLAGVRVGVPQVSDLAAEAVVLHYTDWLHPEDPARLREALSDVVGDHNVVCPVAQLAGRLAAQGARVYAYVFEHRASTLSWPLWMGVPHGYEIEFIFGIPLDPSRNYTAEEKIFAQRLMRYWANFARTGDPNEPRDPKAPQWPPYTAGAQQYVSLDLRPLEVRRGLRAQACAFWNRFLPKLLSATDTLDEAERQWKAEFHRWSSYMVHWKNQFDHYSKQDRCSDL

[1] = DRUGMATRIX: Calcium Channel Type L, Dihydropyridine radioligand binding (ligand: [3H] Nitrendipine); assay type: cell membranes, Rattus norvegicus, Wistar, Cerebral cortex, Membrane; conditions: Not Active = under 50% inhibition at 10 µM
[2] = biological target: Protein phosphatase 3 catalytic subunit alpha (Homo sapiens, UniProt Q08209); set-up: species or system Escherichia coli;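 note: inhibition of calcineurin (PP2B) enzyme activity, measured with DiFMUP as the substrate; in other assays of this panel Not Active means under 50% inhibition at 10 µM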
[3] = biological target: T2, Alpha-1D adrenergic receptor (Homo sapiens, UniProt P25100); assay type: cell membranes, HEK293, Membrane; conditions: hek293; note: in other assays of this panel Not Active means under 50% inhibition at 10 µM
T2 sequence (P25100 whole entry): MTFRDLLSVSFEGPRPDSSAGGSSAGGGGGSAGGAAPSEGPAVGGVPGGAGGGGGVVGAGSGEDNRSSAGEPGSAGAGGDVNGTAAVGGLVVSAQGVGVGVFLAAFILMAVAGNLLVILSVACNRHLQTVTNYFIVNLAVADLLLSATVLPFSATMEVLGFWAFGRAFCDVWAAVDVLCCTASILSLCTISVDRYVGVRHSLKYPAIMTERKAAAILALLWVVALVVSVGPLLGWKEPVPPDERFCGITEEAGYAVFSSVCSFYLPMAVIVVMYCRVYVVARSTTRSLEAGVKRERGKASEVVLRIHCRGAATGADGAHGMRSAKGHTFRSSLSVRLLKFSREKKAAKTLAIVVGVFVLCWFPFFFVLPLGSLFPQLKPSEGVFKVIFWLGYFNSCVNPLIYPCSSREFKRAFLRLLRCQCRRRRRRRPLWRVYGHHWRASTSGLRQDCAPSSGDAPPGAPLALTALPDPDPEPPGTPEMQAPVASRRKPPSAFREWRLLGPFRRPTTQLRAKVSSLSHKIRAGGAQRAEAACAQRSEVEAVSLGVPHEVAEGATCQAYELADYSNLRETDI

Melanocortin receptor 5 = Melanocortin receptor 5 (Homo sapiens, UniProt P33032); assay type: cell membranes, HEK293, Membrane; note: in other assays of this panel Not Active means under 50% inhibition at 10 µM
Chain of Melanocortin receptor 5 (P33032 whole entry): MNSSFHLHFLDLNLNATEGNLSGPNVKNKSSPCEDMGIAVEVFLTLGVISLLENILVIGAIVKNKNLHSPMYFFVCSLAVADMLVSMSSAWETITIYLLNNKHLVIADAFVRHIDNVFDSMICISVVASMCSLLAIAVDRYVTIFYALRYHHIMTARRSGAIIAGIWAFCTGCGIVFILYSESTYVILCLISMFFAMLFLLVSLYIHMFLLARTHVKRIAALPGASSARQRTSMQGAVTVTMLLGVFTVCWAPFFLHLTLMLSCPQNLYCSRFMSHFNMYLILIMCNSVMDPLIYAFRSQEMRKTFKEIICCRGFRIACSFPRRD

Molecule	IC50 (Leukotriene C4 synthase)	IC50 (Acetylcholinesterase)	IC50 [1]	Ki [1]	IC50 [2]	IC50 [3]	IC50 (Melanocortin receptor 5; hek293)	IC50 (Melanocortin receptor 5; read-out: IC50)	Ki (Melanocortin receptor 5; read-out: Ki)	Ki (Leukotriene C4 synthase)	Ki (Acetylcholinesterase)	Ki [2]	Ki [3]	Ki (Melanocortin receptor 5; hek293)	IC50 (Melanocortin receptor 5; hek293, read-out: IC50)	Ki (Melanocortin receptor 5; hek293, read-out: Ki)
COC(=O)Nc1nc2ccc([S+]([O-])c3ccccc3)cc2[nH]1 (centres undefined) [OXFENDAZOLE]	Not Active	Not Active	Not Active	Not Active	Not Active	Not Active	Not Active									
CC(=O)O[C@H]1C(=O)[C@@]2(C)[C@H]([C@H](OC(=O)c3ccccc3)[C@]3(O)C[C@H](OC(=O)[C@H](O)[C@@H](NC(=O)c4ccccc4)c4ccccc4)C(C)=C1C3(C)C)[C@]1(OC(C)=O)CO[C@@H]1C[C@@H]2O [PACLITAXEL]	Not Active	Not Active	Not Active	Not Active	Not Active	Not Active		17.1 µM	16.1 µM							
C[n+]1ccc(-c2cc[n+](C)cc2)cc1.[Cl-].[Cl-] [PARAQUAT DICHLORIDE]	Not Active	Not Active	Not Active	Not Active	Not Active	Not Active	Not Active									
CC(C)NCC(O)COc1cccc2[nH]ccc12 (centres undefined) [PINDOLOL]	Not Active	Not Active	Not Active	Not Active	Not Active	Not Active	Not Active									
CCn1cc(C(=O)O)c(=O)c2cnc(N3CCCC3)nc21 [PIROMIDIC ACID]	Not Active	Not Active	Not Active	Not Active	Not Active	Not Active	Not Active									
C[n+]1ccccc1/C=N/O.[Cl-] [PRALIDOXIME CHLORIDE]	Not Active	Not Active	Not Active	Not Active	Not Active	Not Active	Not Active									
C[C@]12C=CC(=O)C=C1CC[C@@H]1[C@@H]2[C@@H](O)C[C@@]2(C)[C@H]1CC[C@]2(O)C(=O)CO [PREDNISOLONE]	Not Active	Not Active	Not Active	Not Active	Not Active	Not Active	Not Active									
CC(=O)[C@H]1[C@H](C#N)C[C@H]2[C@@H]3CC=C4C[C@@H](O)CC[C@]4(C)[C@H]3CC[C@@]21C [PREGNENOLONE CARBONITRILE]	Not Active	Not Active	Not Active	Not Active	Not Active	Not Active	Not Active									
CCCN(CCC)S(=O)(=O)c1ccc(C(=O)O)cc1 [PROBENECID]	Not Active	Not Active	Not Active	Not Active	Not Active	Not Active	Not Active									
CCCNCC(O)COc1ccccc1C(=O)CCc1ccccc1 (centres undefined) [PROPAFENONE]	Not Active	Not Active	Not Active	Not Active	Not Active	Not Active	Not Active									
CCCOc1ccc(C(=O)OCCN(CC)CC)cc1N [PROPARACAINE]	Not Active	Not Active	Not Active	Not Active	Not Active	Not Active	Not Active									
CC(C)c1cccc(C(C)C)c1O [PROPOFOL]	Not Active	Not Active	Not Active	Not Active	Not Active	Not Active	Not Active									
C[C@@H]1O[C@@H](O[C@@H]2C=C3CC[C@@H]4[C@H](CC[C@]5(C)[C@@H](c6ccc(=O)oc6)CC[C@]45O)[C@@]3(C)CC2)[C@H](O)[C@H](O)[C@H]1O [PROSCILLARIDIN]	Not Active	Not Active	Not Active	Not Active	Not Active	Not Active	Not Active									
Oc1cccc(O)c1O [PYROGALLOL]	Not Active	Not Active	Not Active	Not Active	Not Active	Not Active	Not Active									
AURANOFIN	Not Active	Not Active	Not Active	Not Active	Not Active	Not Active	Not Active			Not Active	Not Active	Not Active	Not Active	Not Active		
GADOPENTETATE DIMEGLUMINE	Not Active	Not Active	Not Active	Not Active	Not Active	Not Active	Not Active			Not Active	Not Active	Not Active	Not Active	Not Active		
GENTAMICIN	Not Active	Not Active	Not Active	Not Active	Not Active	Not Active	Not Active			Not Active	Not Active	Not Active	Not Active	Not Active		
GRAMICIDIN	Not Active	Not Active	Not Active	Not Active	Not Active	Not Active				Not Active	Not Active	Not Active	Not Active		2.01 µM	1.89 µM
NYSTATIN	Not Active	Not Active	Not Active	Not Active	Not Active	Not Active	Not Active			Not Active	Not Active	Not Active	Not Active	Not Active		
